The structures appear in SMILES notation. Converted amounts (≈) assume the structure as drawn. The source made the active and inactive calls. No cut-off for these calls is given here.

One test has as its system Candida albicans. In words: Antifungal activity against Candida albicans SC5314 up to 100 ug/ml after 48 hrs by microdilution assay. In kind it is functional, organism-based. On the technique in general: Broth dilution looks for growth in wells or tubes with falling amounts of substance.
The test system of the next test is T47D. In words: Growth inhibition of human T47D cells. In kind it is functional, cell-based.
A further test deals with Aspergillus nidulans. In words: Growth inhibition of Aspergillus nidulans at 0 to 300 ug/ml incubated for 4 days. Type of test: functional, organism-based.

In the case of `COc1cc([C@H](Cc2ccccc2Cl)NC(C)=O)oc(=O)c1`, the result with Candida albicans was inactive.

With `COc1cc([C@H](Cc2ccc(Br)cc2)NC(C)=O)oc(=O)c1`, the outcome in the test on Candida albicans was inactive.

`COc1cc([C@H](Cc2cccc(Cl)c2)NC(C)=O)oc(=O)c1`: the outcome in the test with Candida albicans was inactive.

Consider `COc1cc([C@H](Cc2ccc(C)cc2)NC(C)=O)oc(=O)c1`, for which the result with Candida albicans was inactive.

Turning to `COc1cc([C@H](Cc2ccccc2)NC(C)=O)oc(=O)c1`, the result in the test with Candida albicans was inactive. This compound also had an IC50 in the test on T47D of 9.2 µg/mL (≈ 32 µM).

As for `N[C@@H](Cc1ccccc1)c1cc(O)cc(=O)o1`, in the test on Aspergillus nidulans, the “growth inhibition (GI)” value was “Active”.

In the case of `COc1cc([C@H](Cc2ccc(Cl)cc2)NC(C)=O)oc(=O)c1`, the outcome in the test with Candida albicans was inactive.

Consider `COc1cc([C@H](Cc2ccc(F)cc2)NC(C)=O)oc(=O)c1`, for which the result in the test on Candida albicans was inactive.

For orientation: IC50 means the concentration needed to halve the response being measured. Read a high IC50 as a need for much substance.
